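Tested at 5 concentrations; 48 h exposure; 96-well plates; endpoints linearly interpolated, else capped at highest concentration. GI50: concentration for 50% inhibition of growth.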 The source made the active and inactive calls. No stated cut-off is given here; in the data, active = GI50 up to about 1.1 µM and inactive = higher.
Assays:
Assay in all cases: growth of human tumour cells (NCI), 48 h
[1] = system: RXF 393
[2] = system: MOLT-4
[3] = system: MDA-MB-231
[4] = system: HOP-62
[5] = system: SF-295
[6] = system: HL-60
[7] = system: NCI/ADR-RES
[8] = system: NCI-H226
[9] = system: RPMI-8226
[10] = system: UO-31
[11] = system: Malme-3M
[12] = system: SW-620
[13] = system: CAKI-1
[14] = system: SF-268
[15] = system: Hs-578T
[16] = system: HCT-116
[17] = system: NCI-H522
[18] = system: CCRF-CEM
[19] = system: A498
[20] = system: SK-OV-3

Row | SMILES | GI50 [1] | GI50 [2] | GI50 [3] | GI50 [4] | GI50 [5] | GI50 [6] | GI50 [7] | GI50 [8] | GI50 [9] | GI50 [10] | GI50 [11] | GI50 [12] | GI50 [13] | GI50 [14] | GI50 [15] | GI50 [16] | GI50 [17] | GI50 [18] | GI50 [19] | GI50 [20]
1 | CCOC(=O)C1CCC(=O)N1C(=O)c1ccccc1 (stereo not given) | > 100 µM (inactive) | > 100 µM (inactive) | > 100 µM (inactive) | > 100 µM (inactive) | > 100 µM (inactive) | > 100 µM (inactive) | > 100 µM (inactive) | > 100 µM (inactive) | > 100 µM (inactive) | > 100 µM (inactive) | > 100 µM (inactive) | > 100 µM (inactive) | > 100 µM (inactive) | > 100 µM (inactive) | > 100 µM (inactive) | > 100 µM (inactive) | > 100 µM (inactive) | > 100 µM (inactive) | > 100 µM (inactive) | 
2 | COc1ccccc1CC(=O)C(O)(C(F)(F)F)C(F)(F)F | > 100 µM (inactive) | > 100 µM (inactive) | > 100 µM (inactive) | > 100 µM (inactive) | > 100 µM (inactive) | > 100 µM (inactive) | > 100 µM (inactive) | > 100 µM (inactive) | > 100 µM (inactive) | > 100 µM (inactive) | > 100 µM (inactive) | > 100 µM (inactive) | > 100 µM (inactive) | > 100 µM (inactive) | > 100 µM (inactive) | > 100 µM (inactive) | > 100 µM (inactive) | > 100 µM (inactive) | > 100 µM (inactive) | > 100 µM (inactive)
3 | N#CC(C#N)=CNC(=S)c1ccncc1 | > 100 µM (inactive) | 64.3 µM (inactive) | > 100 µM (inactive) | > 100 µM (inactive) | > 100 µM (inactive) | 48.1 µM (inactive) | > 100 µM (inactive) | > 100 µM (inactive) | 36.9 µM (inactive) | 5.6 µM (inactive) | > 100 µM (inactive) | 64.9 µM (inactive) | 46.7 µM (inactive) | 61.1 µM (inactive) | 57.4 µM (inactive) | 53.6 µM (inactive) | 21.9 µM (inactive) | 34.5 µM (inactive) | 92.9 µM (inactive) | > 100 µM (inactive)
4 | CC[C@@H]1CC[C@@H]2[C@H](CC[C@]3(C)[C@@H](O)CC[C@@H]23)[C@H]1C(=O)O | > 100 µM (inactive) | > 100 µM (inactive) | > 100 µM (inactive) | > 100 µM (inactive) | > 100 µM (inactive) | > 100 µM (inactive) | > 100 µM (inactive) | > 100 µM (inactive) | > 100 µM (inactive) | > 100 µM (inactive) | > 100 µM (inactive) | > 100 µM (inactive) | > 100 µM (inactive) | > 100 µM (inactive) | > 100 µM (inactive) | > 100 µM (inactive) | > 100 µM (inactive) | > 100 µM (inactive) | > 100 µM (inactive) | > 100 µM (inactive)
5 | O=C1Sc2cc3ccccc3cc2C(=O)Sc2ccc(Br)cc21 | 2.48 µM (inactive) | 3.55 µM (inactive) | 4.09 µM (inactive) | 6.21 µM (inactive) | 13.1 µM (inactive) | 3.9 µM (inactive) | 3.67 µM (inactive) | 14.9 µM (inactive) | 1.65 µM (inactive) |  | 11.9 µM (inactive) | 3.07 µM (inactive) | 4.73 µM (inactive) | 6.08 µM (inactive) | 5.09 µM (inactive) | 5.45 µM (inactive) | 1.82 µM (inactive) | 1.12 µM (active) | 19 µM (inactive) | 15.5 µM (inactive)
6 | CCc1nn(CN2CCN(C)CC2)c(=S)n1/N=C\c1ccc(-c2ccc([N+](=O)[O-])cc2)o1 | 26.8 µM (inactive) | 34.7 µM (inactive) | 39.1 µM (inactive) | 28.4 µM (inactive) | 40.7 µM (inactive) | > 100 µM (inactive) | 25.9 µM (inactive) | 22.7 µM (inactive) | 39.5 µM (inactive) | 56.6 µM (inactive) | 42 µM (inactive) |  | 74.5 µM (inactive) | 37.8 µM (inactive) | 56.9 µM (inactive) | 58.5 µM (inactive) | 51.5 µM (inactive) | 22.5 µM (inactive) | 26 µM (inactive) | 40.7 µM (inactive)
7 | CCCCCCCCCCCCCCCC(=O)OCC(COP(=O)(O)OCCNC(=O)CCSSc1ccccn1)OC(=O)CCCCCCCCCCCCCCC (stereo not given) | > 100 µM (inactive) | > 100 µM (inactive) | > 100 µM (inactive) | > 100 µM (inactive) | > 100 µM (inactive) | > 100 µM (inactive) | > 100 µM (inactive) | > 100 µM (inactive) | > 100 µM (inactive) | > 100 µM (inactive) | > 100 µM (inactive) | > 100 µM (inactive) | > 100 µM (inactive) | > 100 µM (inactive) | > 100 µM (inactive) | > 100 µM (inactive) | > 100 µM (inactive) | > 100 µM (inactive) | > 100 µM (inactive) | > 100 µM (inactive)
8 | Cc1ccc2c(c1)C(=O)C1(Cc3ccccc3C1=O)C2 (stereo not given) | 47 µM (inactive) | > 100 µM (inactive) | > 100 µM (inactive) | 47 µM (inactive) | > 100 µM (inactive) | > 100 µM (inactive) | > 100 µM (inactive) | > 100 µM (inactive) | > 100 µM (inactive) | 1.86 µM (inactive) | > 100 µM (inactive) | > 100 µM (inactive) |  | > 100 µM (inactive) | > 100 µM (inactive) | > 100 µM (inactive) | > 100 µM (inactive) | > 100 µM (inactive) | > 100 µM (inactive) | 31.2 µM (inactive)
9 | Cc1nc(-n2[nH]c(C)c(CCO)c2=O)[nH]c(=O)c1CCO | > 100 µM (inactive) | > 100 µM (inactive) | > 100 µM (inactive) | > 100 µM (inactive) | > 100 µM (inactive) | > 100 µM (inactive) | > 100 µM (inactive) | > 100 µM (inactive) | > 100 µM (inactive) | > 100 µM (inactive) | < 0.01 µM (active) | > 100 µM (inactive) | > 100 µM (inactive) | > 100 µM (inactive) | > 100 µM (inactive) | > 100 µM (inactive) | > 100 µM (inactive) | > 100 µM (inactive) | 93.1 µM (inactive) | > 100 µM (inactive)
10 | Cc1ccc(C(=O)/C=C2\Nc3ccccc3SC2=O)c(C)c1 | < 0.01 µM (active) | 37.7 µM (inactive) | > 100 µM (inactive) | 32.9 µM (inactive) | 46.5 µM (inactive) | 26.9 µM (inactive) | 42.3 µM (inactive) | 30.7 µM (inactive) | 28.5 µM (inactive) | 32.5 µM (inactive) | 84.3 µM (inactive) |  | 37.2 µM (inactive) | 25.1 µM (inactive) | 32.6 µM (inactive) | 38 µM (inactive) | 26.9 µM (inactive) | 36.3 µM (inactive) | > 100 µM (inactive) | 43.9 µM (inactive)

Source: ChEMBL document CHEMBL1201862, “PubChem BioAssay data set” (2004)
